The results in this text go back to ChEMBL document CHEMBL1201862, “PubChem BioAssay data set” (2004).

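Values below derive from 48-hour exposures of cells grown in 96-well plates, with endpoints linearly interpolated between the two concentrations bracketing the appropriate inhibition level. The concentration for 50% growth inhibition is given as GI50.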 Calls of active or inactive are those of the source. Rule as the data show it: active = GI50 up to about 1.1 µM and inactive = higher.

Test in all cases: NCI tumour cell line growth inhibition, 48 h
In assay [1] the test system is IGROV-1.
The subject of assay [2] is SK-MEL-2.
The test system of assay [3] is HOP-92.
In assay [4] the test system is RPMI-8226.
For assay [5], the system named is TK-10.
The subject of assay [6] is NCI-H522.
In assay [7] the test system is Hs-578T.
In assay [8] the test system is HL-60.
The test system of assay [9] is OVCAR-8.
For assay [10], the system named is SK-OV-3.
Assay [11] deals with KM12.
Assay [12] deals with NCI-H23.
Assay [13] deals with MDA-MB-435.
For assay [14], the system named is A549.
The subject of assay [15] is Malme-3M.
For assay [16], the system named is LOX IMVI.
Assay [17] concerns MOLT-4.
Assay [18] has as its system SNB-19.
Assay [19] deals with HT-29.
The subject of assay [20] is NCI/ADR-RES.

Consider `CC(C)C(C=O)C(O)(C(F)(F)F)C(F)(F)F` (stereo not given), for which the GI50 was > 10 µM (inactive) in assay [1]; > 100 µM (inactive) in assay [2]; > 100 µM (inactive) in [3]; > 100 µM (inactive) in assay [4]; > 100 µM (inactive) in [5]; > 100 µM (inactive) in assay [6]. Also, the GI50 in assay [7] was 59.3 µM (inactive); in [8], > 100 µM (inactive); in [9], > 100 µM (inactive); in assay [10], > 100 µM (inactive); in assay [11], > 100 µM (inactive); in assay [12] it was > 100 µM (inactive). In addition, the GI50 in assay [13], in assay [14], in assay [15], in assay [16], in assay [17] and in assay [18] was > 100 µM (inactive) throughout. The GI50 in assay [19] and in assay [20] was > 100 µM (inactive) throughout.

For `CC(C)(C)[C@@H]1NC(=O)CN1C(=O)OCc1ccccc1`, the GI50 in assay [1], in [2], in [3], in assay [4], in [5] and in assay [6] was > 100 µM (inactive) each time. Also, the GI50 in assay [7] was 0.661 µM (active); in [8], > 100 µM (inactive); in assay [9], > 100 µM (inactive); in [10] it was > 100 µM (inactive); in [11] it was > 100 µM (inactive); in assay [12], > 100 µM (inactive). The GI50 in assay [13], in assay [14], in assay [15], in [16], in assay [17] and in assay [18] was > 100 µM (inactive) each time. Besides, the GI50 in assay [19] and in assay [20] was > 100 µM (inactive) in each case.

`C=C1CCCCCCCCC/C=C/1SCCCSC`: the GI50 in [1], in assay [2], in assay [3], in assay [4], in assay [5] and in assay [6] was > 100 µM (inactive) each time. Further, the GI50 in [7], in assay [8], in [9], in assay [10], in [11] and in assay [12] was > 100 µM (inactive) in each case. The GI50 in assay [13], in assay [14], in assay [15], in [16], in [17] and in assay [18] was > 100 µM (inactive) in each case. Moreover, the GI50 in assay [19] and in [20] was > 100 µM (inactive) throughout.

Consider `COc1cc(C2c3cc4c(cc3OC(NNC(N)=S)C2C)OCO4)cc(OC)c1OC` (stereo not given), for which the GI50 in [1] is 0.441 µM (active); in assay [2] it was 25.6 µM (inactive); in [3], 0.152 µM (active); in assay [4], 0.29 µM (active); in [5] it was 5.12 µM (inactive); in assay [6] it was 0.303 µM (active). For the same compound, the GI50 was 0.406 µM (active) in [7]; 0.165 µM (active) in assay [8]; 0.411 µM (active) in [9]; 0.53 µM (active) in assay [10]; 0.343 µM (active) in assay [11]; 0.38 µM (active) in assay [12]. In addition, the GI50 is 0.0425 µM (active) in [13]; 0.644 µM (active) in [14]; 0.53 µM (active) in [15]; 0.412 µM (active) in [16]; 0.374 µM (active) in assay [17]; 0.471 µM (active) in assay [18]. The GI50 in assay [19] is 0.269 µM (active); in assay [20] it was 0.585 µM (active).

Consider `COC1(CC[C@H](C)COC2OC(CO)C(O)C(O)C2O)O[C@H]2C[C@H]3[C@@H]4CC=C5C[C@@H](OC6OC(CO)C(O)C(OC7OC(CO)C(O)C(O)C7O)C6OC6OC(C)C(O)C(O)C6O)CC[C@]5(C)[C@H]4CC[C@]3(C)[C@H]2[C@@H]1C` (stereo not given in full), for which the GI50 is 3.73 µM (inactive) in assay [1]; 8.77 µM (inactive) in assay [2]; 3.37 µM (inactive) in [3]; 2.54 µM (inactive) in [4]; 21.2 µM (inactive) in assay [5]; 2.94 µM (inactive) in assay [6]. Also, the GI50 in assay [7] was 11 µM (inactive); in assay [8] it was 3.12 µM (inactive); in assay [9], 3.03 µM (inactive); in assay [10], 12.1 µM (inactive); in [11], 1.98 µM (inactive); in assay [12], 6.52 µM (inactive). Also, the GI50 in [13] is 1.87 µM (inactive); in assay [14], 2.73 µM (inactive); in assay [15], 2.5 µM (inactive); in assay [16], 2.68 µM (inactive); in assay [17] it was 3.15 µM (inactive); in assay [18], 7.31 µM (inactive). In addition, the GI50 is 4.57 µM (inactive) in assay [19] and 9.44 µM (inactive) in assay [20].

For `Cn1c2ccccc2n2c3ccccc3c3nnc(N)c-3c12`, the GI50 in assay [1] was > 100 µM (inactive); in assay [2] it was 22.6 µM (inactive); in assay [3], 42.4 µM (inactive); in assay [4], > 100 µM (inactive); in assay [5] it was > 100 µM (inactive); in assay [6], 8.53 µM (inactive). For the same compound, the GI50 in [7] is 1.69 µM (inactive); in assay [8], > 100 µM (inactive); in [9], 8.18 µM (inactive); in assay [10], > 95.1 µM (inactive); in assay [11], 61.5 µM (inactive); in [12] it was 17.5 µM (inactive). The GI50 is > 88.7 µM (inactive) in [13]; > 100 µM (inactive) in assay [14]; 10.5 µM (inactive) in assay [15]; 57.7 µM (inactive) in assay [16]; 7.67 µM (inactive) in assay [17]; 1.45 µM (inactive) in assay [18]. Further, the GI50 in assay [19] and in [20] was > 100 µM (inactive) each time.

Take `CCC(C)C(=O)O[C@H]1C(=O)O[C@@H]2C[C@H]3C(C)=CC(=O)[C@@H](O)[C@]3(C)[C@H]3[C@@H](O)[C@H](O)[C@@]4(C)OC[C@]32[C@@H]14` (stereo not given in full): the GI50 in [1] is < 0.0191 µM (active); in assay [2] it was < 0.0252 µM (active); in [3], < 0.0237 µM (active); in assay [4], < 0.016 µM (active); in assay [5], < 0.0198 µM (active); in assay [6], 0.0147 µM (active). Further, the GI50 in assay [7] was < 0.01 µM (active); in [8] it was 0.014 µM (active); in assay [9], < 0.0155 µM (active); in [10] it was 0.0832 µM (active); in assay [11], < 0.0161 µM (active); in assay [12], < 0.01 µM (active). The GI50 in assay [13] was < 0.01 µM (active); in assay [14], 0.141 µM (active); in [15], < 0.0152 µM (active); in assay [16], < 0.0129 µM (active); in [17], 0.0112 µM (active); in assay [18], < 0.0143 µM (active). Besides, the GI50 in assay [19] is < 0.0146 µM (active); in assay [20], < 0.0334 µM (active).

As for `CCn1c(=N)sc2nc3ccccc3n2c1=O`, the GI50 in assay [1], in assay [2], in assay [3], in assay [4], in [5] and in [6] was > 100 µM (inactive) in each case. Also, the GI50 in assay [7], in [8], in assay [9], in assay [10], in assay [11] and in [12] was > 100 µM (inactive) throughout. In addition, the GI50 in assay [13], in [14], in assay [15], in [16], in assay [17] and in assay [18] was > 100 µM (inactive) throughout. Also, the GI50 in [19] and in assay [20] was > 100 µM (inactive) each time.

Turning to `Cc1cc(C(=C2C=CC(=N)C=C2)c2ccc(N)cc2)ccc1N` [FUCHSIN, BASIC], the GI50 was 10.7 µM (inactive) in [1]; 3.18 µM (inactive) in [2]; 6.81 µM (inactive) in assay [3]; 2.42 µM (inactive) in assay [4]; 8.97 µM (inactive) in [5]; 2.84 µM (inactive) in [6]. Also, the GI50 in assay [7] is 0.494 µM (active); in [8], 3.21 µM (inactive); in [9] it was 1.35 µM (inactive); in assay [10], 3.58 µM (inactive); in assay [11] it was 2.34 µM (inactive); in assay [12] it was 2.98 µM (inactive). Moreover, the GI50 in assay [13] is 4.08 µM (inactive); in [14], 3.38 µM (inactive); in assay [15] it was 2.65 µM (inactive); in [16] it was 2.25 µM (inactive); in assay [17], 5.51 µM (inactive); in assay [18] it was 0.615 µM (active). The GI50 in assay [19] is 3.66 µM (inactive); in [20], 11.7 µM (inactive).

As to `CCN(c1cccc(NC(=S)Nc2ccccc2N(CC)c2cc(-c3ccccc3)no2)c1)c1cc(-c2ccccc2)no1`, the GI50 in assay [1], in [2], in [3], in assay [4], in assay [5] and in assay [6] was > 100 µM (inactive) each time. Also, the GI50 in [7], in assay [8], in [9], in [10], in assay [11] and in assay [12] was > 100 µM (inactive) in each case. For the same compound, the GI50 in assay [13], in assay [14], in [15], in [16], in assay [17] and in assay [18] was > 100 µM (inactive) in each case. Besides, the GI50 in assay [19] and in assay [20] was > 100 µM (inactive) throughout.
